One test relates to Mycobacterium leprae. Nature of the test: Inhibitory activity against Mycobacterium leprae in the macrophage model (3H thymidine uptake). The class given is cell-based, M. leprae (in human monocyte derived macrophages). The source says:
The effect of CQQ on Mycobacterium leprae, the causative agent for leprosy, was studied using monocyte derived macrophages obtained from human volunteers.
Blood from a healthy volunteer was drawn and monocytes were removed and cultured to the macrophage stage. This required about 7 days. The macrophages were then exposed to M. leprae bacilli obtained from biopsy specimens of leprosy patients. One sample was exposed to CQQ, while other samples were exposed to DDS (diaminodiphenyl sulphone), the standard antileprosy drug, or rifampin, at various concentrations. Macrophages were exposed to radiolabelled tritium (^3 H) labeled thymidine, and its uptake was measured using a liquid scintillation counter. A control model of M. leprae exposed macrophages, which was not treated was used as well. The uptake of thymidine is a measure of antimycobacterial activity.

Another test deals with M. intracellulare. Kind of test: In vitro activity against serovars of M. intracellulare, radiometric (Bactec) method. The class given is cell-based. To be noted: comparison with CQQ; no data shown. Here is the method: A study of the effect of CQQ on different serovars of M. intracellulare in vitro was performed using the radiometric (Bactec) method. Maximum growth index (GI) of 999 was determined (for control models) in terms of the number of days necessary for the culture to reach this stage. GI is measured using the special instrument which reads the amount of ^14 C labelled CO2 liberated from the strains using the ^14 C labelled substrates.

Turning to `Nc1ccc(S(=O)(=O)c2ccc(N)cc2)cc1` [DDS, diaminodiphenyl sulphone, reference compound], the “Counts per minute (3H thymidine uptake)” value in the test with Mycobacterium leprae (Sample I, 10 NG/ML) is 84 COUNTS PER MINUTE; with Mycobacterium leprae (Sample II, DDS 10 NG/ML), 78 COUNTS PER MINUTE; in the test on Mycobacterium leprae (Sample III, DDS 10 NG/ML) it was 84 COUNTS PER MINUTE.
On to `CO[C@H]1/C=C/O[C@@]2(C)Oc3c(C)c(O)c4c(O)c(c(/C=N/N5CCN(C)CC5)c(O)c4c3C2=O)NC(=O)/C(C)=C\C=C\[C@H](C)[C@H](O)[C@@H](C)[C@@H](O)[C@@H](C)[C@H](OC(C)=O)[C@@H]1C` [rifampin, reference compound], for which, in the test on M. intracellulare, the “Effectiveness on M. intracellulare strains” value is “only effective on a few strains”. In addition, the “Counts per minute (3H thymidine uptake)” value came to 82 COUNTS PER MINUTE with Mycobacterium leprae (Sample I, 3 NG/ML); 80 COUNTS PER MINUTE in the test with Mycobacterium leprae (Sample II, 3 NG/ML); 82 COUNTS PER MINUTE with Mycobacterium leprae (Sample III, 3 NG/ML).

The record behind these values is US4963565A, “In vivo treatment of mycobacterial infections with 6-cyclo octylamino-5,8-quinoline quinone” (priority 1986, dated 1990).
